{
  "source": "paper PMC11969009",
  "about": "(Nature Communications, 2025)",
  "key": {"[1]": {"target": "MERS-CoV PLpro (Middle East respiratory syndrome-related coronavirus, UniProt K9N7C7)", "sequence (K9N7C7 1482-1803 limits assumed)": "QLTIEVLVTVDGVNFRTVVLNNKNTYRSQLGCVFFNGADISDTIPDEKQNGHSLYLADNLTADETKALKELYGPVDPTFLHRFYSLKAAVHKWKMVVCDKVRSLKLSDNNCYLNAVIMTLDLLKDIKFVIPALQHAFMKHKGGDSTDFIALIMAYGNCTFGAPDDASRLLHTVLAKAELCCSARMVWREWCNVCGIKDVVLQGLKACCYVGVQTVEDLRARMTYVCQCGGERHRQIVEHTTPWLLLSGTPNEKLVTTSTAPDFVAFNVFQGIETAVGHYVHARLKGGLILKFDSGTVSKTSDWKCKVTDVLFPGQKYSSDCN", "format": "biochemical", "design": "unit: %"}, "[2]": {"target": "OC43 PLpro (Human coronavirus OC43, UniProt P0C6X6)", "sequence (P0C6X6 1561-1872 limits assumed)": "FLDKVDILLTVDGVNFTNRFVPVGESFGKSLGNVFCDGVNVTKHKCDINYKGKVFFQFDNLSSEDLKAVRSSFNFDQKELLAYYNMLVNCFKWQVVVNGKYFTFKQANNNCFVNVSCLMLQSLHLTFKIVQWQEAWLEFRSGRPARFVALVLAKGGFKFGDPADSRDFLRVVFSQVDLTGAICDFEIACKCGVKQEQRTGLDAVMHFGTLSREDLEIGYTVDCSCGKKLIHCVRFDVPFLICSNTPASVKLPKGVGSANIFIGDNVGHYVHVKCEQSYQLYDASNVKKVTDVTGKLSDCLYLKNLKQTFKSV", "format": "biochemical", "design": "unit not given here"}, "[3]": {"target": "SARS-CoV PLpro (Severe acute respiratory syndrome coronavirus, UniProt P0C6X7)", "test": "biochemical", "design": "inhibition of SARS-CoV PLpro, UbRh dose-response replicate value: unit: %"}, "[4]": {"tested_on": "SARS-CoV-2 clinical isolate VIC001", "test": "microbe, parasite or virus in culture", "format": "cell-based"}, "[5]": {"target": "NL63 PL2pro (Human coronavirus NL63, UniProt P0C6X5)", "sequence (P0C6X5 1578-1876 limits assumed)": "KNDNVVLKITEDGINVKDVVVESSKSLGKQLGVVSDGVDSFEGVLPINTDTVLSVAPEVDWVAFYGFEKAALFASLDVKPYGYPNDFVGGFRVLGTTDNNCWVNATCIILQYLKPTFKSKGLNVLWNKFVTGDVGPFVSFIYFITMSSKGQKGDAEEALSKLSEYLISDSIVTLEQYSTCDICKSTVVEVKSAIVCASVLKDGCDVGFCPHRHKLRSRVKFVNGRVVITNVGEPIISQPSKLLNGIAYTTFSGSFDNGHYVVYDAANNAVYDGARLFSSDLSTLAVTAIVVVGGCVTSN", "test": "biochemical", "design": "inhibition of NL63 PL2pro, UbRh dose-response replicate value: unit: %"}, "[6]": {"target": "229E PL2pro (Human coronavirus 229E, UniProt P0C6X1)", "sequence (P0C6X1 1599-1905 limits assumed)": "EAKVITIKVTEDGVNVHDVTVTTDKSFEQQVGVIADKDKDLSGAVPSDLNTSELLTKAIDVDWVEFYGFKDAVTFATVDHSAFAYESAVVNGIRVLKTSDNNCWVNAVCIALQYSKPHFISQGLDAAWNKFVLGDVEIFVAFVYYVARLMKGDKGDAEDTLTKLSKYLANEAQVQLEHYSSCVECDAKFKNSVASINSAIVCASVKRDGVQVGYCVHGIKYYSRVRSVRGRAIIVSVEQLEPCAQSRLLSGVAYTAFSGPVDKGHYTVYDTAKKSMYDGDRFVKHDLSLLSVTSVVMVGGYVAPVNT", "test": "biochemical", "design": "inhibition of 229E PL2pro, UbRh dose-response replicate value: unit: %"}},
  "note": "Several values for one entry are separate records, joined by “and”; a condition that tells them apart may be missing. Identical values can stand only once. Like-named read-outs stand apart in the source and are kept apart here.",
  "data": [
    {"smiles": "CO/N=C(/c1ccc2cc(OC)ccc2c1)[C@@H]1CCCN([C@H]2CC[C@@H](O)CC2)C1", "note": "[WEHI-P4]", "values": [
      {"measurement": "inhibition of MERS-CoV PLpro, UbRh dose-response replicate value", "setting": "[1]", "result": "-2.626 and 0.2924 and -2.097 and -1.6716 and -0.7294 and -2.565 and -2.287 and 0.1452 and -3.504 and -2.889 and 1.578 and -2.541 and -3.292 and -3.12 and -0.8701 and -1.654 and -2.848 and 0.1888 and -1.626"},
      {"measurement": "inhibition of MERS-CoV PLpro, UbRh dose-response replicate value", "setting": "[1]; Conc 0.00498 µM", "result": "2.537 and 1.088 and 4.818 and -0.3578"},
      {"measurement": "inhibition of MERS-CoV PLpro, UbRh dose-response replicate value", "setting": "[1]; Conc 0.0149 µM", "result": "0.4714 and 1.45 and -3.026 and -3.057"},
      {"measurement": "inhibition of MERS-CoV PLpro, UbRh dose-response replicate value", "setting": "[1]; Conc 0.0448 µM", "result": "0.04351 and -1.536 and 0.7971 and -3.294"},
      {"measurement": "inhibition of MERS-CoV PLpro, UbRh dose-response replicate value", "setting": "[1]; Conc 3.63 µM", "result": "-1.9557 and -1.916 and -5.199 and -5.618"},
      {"measurement": "inhibition of MERS-CoV PLpro, UbRh dose-response replicate value", "setting": "[1]; Conc 98 µM", "result": "-3.229 and -4.988 and -1.6159 and -4.525"},
      {"measurement": "inhibition of OC43 PLpro, UbRh dose-response replicate value", "setting": "[2]", "result": "-2.257 and 2.5807 and 4.868 and -0.1188 and -1.486 and 1.4475 and 10.2923 and 5.639 and 2.747 and 1.253 and 10.74 and 6.439 and 0.2359 and 1.058 and 1.648 and 0.7875 and 3.338 and 4.936 and 12.7203 and 5.2479"},
      {"measurement": "inhibition of OC43 PLpro, UbRh dose-response replicate value", "setting": "[2]; Conc 0.00498 µM", "result": "-1.019 and 4.2451 and 4.799 and 3.755"},
      {"measurement": "inhibition of OC43 PLpro, UbRh dose-response replicate value", "setting": "[2]; Conc 0.0149 µM", "result": "3.285 and -5.104 and 7.176 and 0.6631"},
      {"measurement": "inhibition of OC43 PLpro, UbRh dose-response replicate value", "setting": "[2]; Conc 0.0448 µM", "result": "1.599 and 3.82 and 6.435 and 3.684"},
      {"measurement": "inhibition of OC43 PLpro, UbRh dose-response replicate value", "setting": "[2]; Conc 3.63 µM", "result": "-4.48 and 0.0664 and 5.368 and 1.321"},
      {"measurement": "inhibition of OC43 PLpro, UbRh dose-response replicate value", "setting": "[2]; Conc 98 µM", "result": "8.342 and 5.591 and 3.318 and 3.826"},
      {"measurement": "IC50", "setting": "[3]", "result": 22, "unit": "nM"},
      {"measurement": "inhibition of SARS-CoV PLpro, UbRh dose-response replicate value", "setting": "[3]", "result": "99.5179 and 99.8695 and 99.888 and 100.41 and 101.206 and 100.652 and 97.9154 and 99.4293 and 98.8906 and 95.7801 and 96.2197 and 96.0782 and 88.7276 and 90.1243 and 89.7578"},
      {"measurement": "inhibition of SARS-CoV PLpro, UbRh dose-response replicate value", "setting": "[3]; Conc 0.00498 µM", "result": "14.7599 and 17.411 and 20.7686"},
      {"measurement": "inhibition at 0.00498 µM", "setting": "[3]; Conc 0.00498 µM, read-out: inhibition of SARS-CoV PLpro, UbRh dose-response replicate value", "result": 16.2, "unit": "%"},
      {"measurement": "inhibition of SARS-CoV PLpro, UbRh dose-response replicate value", "setting": "[3]; Conc 0.0149 µM", "result": "37.3989 and 38.0308 and 36.4129"},
      {"measurement": "inhibition at 0.0149 µM", "setting": "[3]; Conc 0.0149 µM, read-out: inhibition of SARS-CoV PLpro, UbRh dose-response replicate value", "result": 35.6, "unit": "%"},
      {"measurement": "inhibition of SARS-CoV PLpro, UbRh dose-response replicate value", "setting": "[3]; Conc 0.0448 µM", "result": "69.6451 and 70.3349 and 71.2781"},
      {"measurement": "inhibition at 0.0448 µM", "setting": "[3]; Conc 0.0448 µM, read-out: inhibition of SARS-CoV PLpro, UbRh dose-response replicate value", "result": 67.2, "unit": "%"},
      {"measurement": "inhibition of SARS-CoV PLpro, UbRh dose-response replicate value", "setting": "[3]; Conc 3.63 µM", "result": "99.5331 and 99.9857 and 99.4982"},
      {"measurement": "inhibition at 3.63 µM", "setting": "[3]; Conc 3.63 µM, read-out: inhibition of SARS-CoV PLpro, UbRh dose-response replicate value", "result": 99.4, "unit": "%"},
      {"measurement": "inhibition of SARS-CoV PLpro, UbRh dose-response replicate value", "setting": "[3]; Conc 98 µM", "result": "99.3819 and 99.8238 and 100.106"},
      {"measurement": "inhibition at 98 µM", "setting": "[3]; Conc 98 µM, read-out: inhibition of SARS-CoV PLpro, UbRh dose-response replicate value", "result": 99.7, "unit": "%"},
      {"measurement": "inhibition at […]", "setting": "[3]; read-out: inhibition of SARS-CoV PLpro, UbRh dose-response replicate value", "result": "100% (2×) and 98.8% and 95.9% and 88.8%"},
      {"measurement": "EC50", "setting": "[4]; Severe acute respiratory syndrome coronavirus 2, Vero, read-out: Antiviral EC50 (plaque assay)", "result": 400, "unit": "nM"},
      {"measurement": "EC50", "setting": "[4]; Severe acute respiratory syndrome coronavirus 2, Vero, read-out: Antiviral EC50 (plaque assay) with Pgp inhibitor", "result": 306, "unit": "nM"},
      {"measurement": "EC50", "setting": "[4]; read-out: Antiviral EC50 (plaque assay)", "result": 410, "unit": "nM"},
      {"measurement": "IC50", "setting": "[5]", "result": 52000, "unit": "nM"},
      {"measurement": "inhibition of NL63 PL2pro, UbRh dose-response replicate value", "setting": "[5]", "result": "29.2044 and 27.2154 and 12.8016 and 14.0355 and 13.7224 and -0.9824 and 3.459 and 0.1256 and -0.3351 and 1.574 and 1.516 and -0.1016 and -0.4149 and 0.8753 and 0.8707 and 2.0171 and 6.071"},
      {"measurement": "inhibition of NL63 PL2pro, UbRh dose-response replicate value", "setting": "[5]; Conc 0.00498 µM", "result": "2.403 and 7.259 and 5.7694 and -2.335"},
      {"measurement": "inhibition of NL63 PL2pro, UbRh dose-response replicate value", "setting": "[5]; Conc 0.0149 µM", "result": "1.231 and 5.289 and 2.0908 and -3.1147"},
      {"measurement": "inhibition of NL63 PL2pro, UbRh dose-response replicate value", "setting": "[5]; Conc 0.0448 µM", "result": "0.2539 and -0.387 and 1.95 and -0.1081"},
      {"measurement": "inhibition of NL63 PL2pro, UbRh dose-response replicate value", "setting": "[5]; Conc 3.63 µM", "result": "5.122 and 3.572 and 1.225 and -0.02217"},
      {"measurement": "inhibition of NL63 PL2pro, UbRh dose-response replicate value", "setting": "[5]; Conc 98 µM", "result": "57.8171 and 54.6906 and 55.1157"},
      {"measurement": "inhibition at 98 µM", "setting": "[5]; Conc 98 µM, read-out: inhibition of NL63 PL2pro, UbRh dose-response replicate value", "result": 58.4, "unit": "%"},
      {"measurement": "inhibition at […]", "setting": "[5]; read-out: inhibition of NL63 PL2pro, UbRh dose-response replicate value", "result": "34.7% and 15.8%"},
      {"measurement": "inhibition of 229E PL2pro, UbRh dose-response replicate value", "setting": "[6]", "result": "-3.299 and -1.103 and -1.357 and -1.684 and -5 and -3.221 and 0.1898 and -0.4439 and 15.3408 and -2.102 and -1.619 and -0.7174 and -1.603 and -0.8771 and -3.61 and -1.122 and -1.443 and -0.5265 and -4.511 and -0.9697"},
      {"measurement": "inhibition of 229E PL2pro, UbRh dose-response replicate value", "setting": "[6]; Conc 0.00498 µM", "result": "-2.024 and 3.205 and 24.2526 and 1.229"},
      {"measurement": "inhibition of 229E PL2pro, UbRh dose-response replicate value", "setting": "[6]; Conc 0.0149 µM", "result": "-0.08917 and 0.9383 and 15.3791 and -0.8809"},
      {"measurement": "inhibition of 229E PL2pro, UbRh dose-response replicate value", "setting": "[6]; Conc 0.0448 µM", "result": "-0.8342 and -1.338 and 5.491 and -0.5647"},
      {"measurement": "inhibition of 229E PL2pro, UbRh dose-response replicate value", "setting": "[6]; Conc 3.63 µM", "result": "-3.66 and -1.559 and -7.103 and -2.2201"}
    ]}
  ]
}
